Structures are written as SMILES.

This assay deals with T1, FYN A (Homo sapiens, UniProt P06241).
T1 construct: purchased Thermo Fisher Scientific (Life Technologies) SelectScreen
As to the kind of experiment: SelectScreen LanthaScreen. The settings on record: read-out: % displacement. It is filed as binding. The gist of the method:
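SelectScreen broad panel; activity (Z'LYTE, Adapta) plus binding formats. ATP: Km app for CSF1R Z'LYTE; 10 for CAMK1 Adapta. Readout = % per kinase.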
(In general: Time-resolved FRET reads energy transfer from a long-lived donor to a nearby acceptor.)

T1 sequence (P06241 whole entry): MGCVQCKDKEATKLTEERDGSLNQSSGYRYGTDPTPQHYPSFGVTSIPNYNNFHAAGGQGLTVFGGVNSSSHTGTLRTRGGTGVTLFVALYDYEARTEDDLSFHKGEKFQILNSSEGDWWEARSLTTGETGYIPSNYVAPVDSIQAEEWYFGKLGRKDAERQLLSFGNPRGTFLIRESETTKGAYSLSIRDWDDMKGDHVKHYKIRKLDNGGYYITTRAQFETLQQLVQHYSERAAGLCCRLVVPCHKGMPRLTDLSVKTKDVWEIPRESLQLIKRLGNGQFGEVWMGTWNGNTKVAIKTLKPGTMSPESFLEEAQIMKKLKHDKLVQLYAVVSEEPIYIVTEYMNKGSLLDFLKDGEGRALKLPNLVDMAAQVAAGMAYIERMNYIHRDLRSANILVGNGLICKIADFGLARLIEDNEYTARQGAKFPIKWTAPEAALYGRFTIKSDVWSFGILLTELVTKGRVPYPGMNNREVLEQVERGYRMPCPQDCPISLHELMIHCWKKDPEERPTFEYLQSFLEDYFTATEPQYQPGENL

For `CN(C(=O)CN1CCOCC1)c1ccc2sc3c(-c4cccc5c(=O)cc(N6CC7CCC(C6)O7)oc45)cccc3c2c1` [NU5455], the inhibition at 1 µM stood at 3.3%.

The values above are taken from PMC6934184, “Selective DNA-PKcs inhibition extends the therapeutic index of localized radiotherapy and chemotherapy” (The Journal of Clinical Investigation, 2019).
